The assay has as its target T1, Progestin Receptor (Oryctolagus cuniculus, UniProt P06186).
T1 construct: The high speed supernatant fraction was used as the receptor preparation; from tissue; host or cells: uterus of New Zealand rabbits, 200,000×g supernatant (cytosol)
T1 sequence (P06186 1-930): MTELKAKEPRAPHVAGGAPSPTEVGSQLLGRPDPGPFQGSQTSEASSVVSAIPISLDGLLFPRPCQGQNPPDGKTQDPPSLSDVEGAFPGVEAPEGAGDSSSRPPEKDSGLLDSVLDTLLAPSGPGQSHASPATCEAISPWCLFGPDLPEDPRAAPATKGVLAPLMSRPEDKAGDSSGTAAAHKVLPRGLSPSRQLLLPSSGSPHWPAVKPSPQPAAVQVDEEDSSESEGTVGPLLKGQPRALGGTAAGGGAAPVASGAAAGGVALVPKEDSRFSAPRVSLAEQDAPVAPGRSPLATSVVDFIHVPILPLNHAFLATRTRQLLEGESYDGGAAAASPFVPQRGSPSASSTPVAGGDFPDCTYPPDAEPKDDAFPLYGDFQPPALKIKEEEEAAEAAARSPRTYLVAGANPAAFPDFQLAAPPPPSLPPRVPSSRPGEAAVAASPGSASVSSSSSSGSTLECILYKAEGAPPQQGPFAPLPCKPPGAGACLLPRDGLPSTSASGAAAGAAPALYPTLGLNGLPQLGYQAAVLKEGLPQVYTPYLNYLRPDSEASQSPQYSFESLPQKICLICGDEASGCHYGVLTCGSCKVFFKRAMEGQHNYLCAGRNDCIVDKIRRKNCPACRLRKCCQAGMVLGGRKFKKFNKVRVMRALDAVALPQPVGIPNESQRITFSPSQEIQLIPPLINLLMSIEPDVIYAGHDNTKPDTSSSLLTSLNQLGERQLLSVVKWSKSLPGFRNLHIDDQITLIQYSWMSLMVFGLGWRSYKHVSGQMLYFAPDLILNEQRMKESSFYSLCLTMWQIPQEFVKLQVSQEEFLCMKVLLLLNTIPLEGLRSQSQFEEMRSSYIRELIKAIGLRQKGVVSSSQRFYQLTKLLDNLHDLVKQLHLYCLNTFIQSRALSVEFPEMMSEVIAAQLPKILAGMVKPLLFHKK
As to the kind of experiment: Progestin Receptor Binding (competitive binding, 3H-promegestone, rabbit uterus receptor preparation). Details: species or system New Zealand rabbits. Conditions: 3H-promegestone displacement, 4° C., 18 h. The protocol: Progestin Receptor Binding
The procedure used was essentially that of J. L. McGuire, C.
Uteri from New Zealand rabbits (1.5 to 2.5 kg) were placed in a cold buffer A (0.01 mol Tris-HCl, pH 8.0, 0.001 mol EDTA, 0.25 mol sucrose). The uteri were minced, washed and homogenized in cold buffer A. The homogenate (2 g wet tissue/mL buffer) was centrifuged at 200,000×g for 1 h at 4° C. The high speed supernatant fraction was used as the receptor preparation.
A competitive binding assay was performed by mixing 3H-promegestone with the receptor preparation and adding a known amount of unlabeled compound. This mixture was incubated at 4° C. for 18 h. The compounds bound to the receptor were separated from those which were free in solution using dextran coated charcoal and the amount of isotope bound to the receptor was determined by scintillation counting. The extent of the compound's interaction with the receptor is measured as the percent reduction in the total isotope bound caused by the unlabeled test compound as compared to the control levels. The receptor screen consists of measuring the reduction in the total isotope bound caused by the unlabeled test compound at […] final concentrations.
The IC50 is the concentration needed to halve the response being measured. A high value points to lower potency. In the case of “4b,5,6,11,11a,12-Hexahydro-7-methoxy-6,11a-dimethyldibenz-[a,f]azulene [Compound 109]”, the IC50 was 1250 nM.

For “6,11,11a,12-Tetrahydro-8-carboxy-9-methoxy-6,11a-dimethyldibenz[a,f]azulene [Compound 80]”, the IC50 stood at 10000 nM.

Turning to `COc1ccc2c(c1)C[C@@]1(C)Cc3ccccc3C1=C[C@H]2C` (relative stereo) [Compound 3], the IC50 was determined as 40 nM.

In turn, `COc1ccc2c(c1)C[C@@]1(C)Cc3ccccc3[C@H]1C[C@H]2C` (relative stereo) [Compound 8] returned an IC50 of 476 nM. Compared with the last molecule, the IC50 is about 12-fold higher.

In turn, `COc1ccc2c(c1)C[C@@]1(C)Cc3ccccc3[C@H]1[C@H](O)[C@H]2C` (relative stereo) [Compound 13, 6,11a-Dimethyl-5-hydroxy-9-methoxy-4b,5,6,11,11a,12-hexahydrodibenz[a,f]azulene (α--OH)] displayed an IC50 of 337 nM.

The molecule `COc1ccc2c(c1)C[C@@]1(C)Cc3ccccc3[C@@H]1C[C@H]2C` (relative stereo) [Compound 16] came in with an IC50 of 353 nM. This IC50 and that of the molecule before are within 1.5-fold of each other.

On to `CC[C@]12Cc3ccccc3C1=C[C@@H](C)c1ccc(OC)cc1C2` (relative stereo) [Compound 17], for which the IC50 is 160 nM.

As to `CC[C@]12Cc3cc(OC)ccc3C1=C[C@@H](C)c1ccc(OC)cc1C2` (relative stereo) [Compound 22], the IC50 is 421 nM.

The molecule `COc1cc2c(cc1C(C)=O)[C@H](C)C=C1c3ccccc3C[C@]1(C)C2` (relative stereo) [Compound 44] yielded an IC50 of 190 nM.

`COc1ccc2c(c1)C[C@@]1(C)Cc3cc(F)ccc3[C@H]1C[C@H]2C` (relative stereo) [Compound 47] had an IC50 of 25 nM.

`COc1cccc2c1[C@H](C)C[C@@H]1c3ccccc3C[C@]1(C)C2` (relative stereo) [Compound 54] came in with an IC50 of 118 nM.

For the molecule `COc1ccc2c(c1)C[C@@]1(C)Cc3ccccc3C1[C@@H](O)[C@H]2C` (relative stereo) [Compound 64, 6,11a-Dimethyl-5-hydroxy-9-methoxy-4b,5,6,11,11a,12-hexahydrodibenz[a,f]azulene (β-OH)], the IC50 was determined as 1680 nM.

The molecule `CCC[C@@]12Cc3cc(OC)ccc3CC[C@@H]1c1ccc(OC)cc1C2` (relative stereo) [Compound 71] showed an IC50 of 439 nM. Compared with the last molecule, the IC50 is about 3.8-fold lower.

`CCC[C@@]12Cc3cc(OC)ccc3CC[C@@H]1c1ccc(F)cc1C2` (relative stereo) [Compound 72] yielded an IC50 of 100 nM.

In turn, `CCC[C@]12Cc3cc(F)ccc3[C@H]1CCc1c(cccc1OC)C2` (relative stereo) [Compound 73] returned an IC50 of 100 nM.

For `CCC[C@]12Cc3ccccc3C1=C[C@@H](C)c1ccc(NC(C)=O)cc1C2` (relative stereo) [Compound 84], the IC50 turned out to be 161 nM.

Molecule `COc1cc2c(c(OC)c1)[C@H](C)C[C@@H]1c3ccccc3C[C@]1(C)C2` (relative stereo) [Compound 86] registered an IC50 of 1670 nM.

As to `CC(=O)Oc1cc2c(c(OC(C)=O)c1)[C@H](C)C[C@@H]1c3ccccc3C[C@]1(C)C2` (relative stereo) [Compound 87], the IC50 worked out at 729 nM.

For the molecule `CCC[C@]12Cc3ccccc3C1=C[C@@H](C)c1ccc(Br)cc1C2` (relative stereo) [Compound 92], the IC50 stood at 139 nM.

With `CCC[C@]12Cc3ccccc3C1=C[C@@H](C)c1ccc(I)cc1C2` (relative stereo) [Compound 99], the IC50 came out at 90 nM. Against the preceding molecule, the IC50 is about 1.5-fold lower.

For the molecule `COc1cccc2c1CC=C1c3ccccc3CC1(C)C2` (stereo not shown) [Compound 1, 7-Methoxy-11a-methyl-6,11,11a,12-tetrahydrodibenz[a,f]azulene], the IC50 was 143 nM.

As to `COc1ccc2c(c1)CC1(C)Cc3ccccc3C1=CC2` (stereo not shown) [Compound 2, 9-Methoxy-11a-methyl-6,11,11a,12-tetrahydrodibenz[a,f]azulene], the IC50 was 239 nM.

`C[C@@H]1CC2c3ccccc3C[C@]2(C)Cc2cc(O)ccc21` (stereo partly shown) [Compound 12] displayed an IC50 of 456 nM. Compared with the last molecule, the IC50 is about 1.9-fold higher.

As for `COc1ccc2c(c1)CC1(C)Cc3ccccc3C1C(=O)C2C` (stereo not shown) [Compound 14, 6,11a-Dimethyl-9-methoxy-5-oxo-4b,5,6,11,11a,12-hexahydrodibenz[a,f]azulene], the IC50 is 212 nM.

The molecule `COc1ccc2c(c1)CC1(C)Cc3cc(OC)ccc3C1C(O)C2C` (stereo not shown) [Compound 19] had an IC50 of 668 nM.

Molecule `CC[C@]12Cc3ccccc3C1C[C@@H](C)c1ccc(OC)cc1C2` (stereo partly shown) [Compound 23] displayed an IC50 of 419 nM.

`CC1c2cc([N+](=O)[O-])c(O)cc2CC2(C)Cc3ccccc3C2C1O` (stereo not shown) [Compound 24, 6,11a-Dimethyl-5,9-dihydroxy-8-nitro-4b,5,6,11,11a,12-hexahydrodibenz[a,f]azulene]: the IC50 was 258 nM.

Turning to `COc1cc2c(cc1[N+](=O)[O-])C(C)C(O)C1c3ccccc3CC1(C)C2` (stereo not shown) [Compound 25, 6,11a-Dimethyl-5-hydroxy-9-methoxy-8-nitro-4b,5,6,11,11a,12-hexahydrodibenz[a,f]azulene], the IC50 was determined as 121 nM.

In the case of `CC1CC2c3ccccc3CC2(C)Cc2ccccc21` (stereo not shown) [Compound 28, 6,11a,-Dimethyl-4b,5,6,11,11a,12-hexahydrodibenz[a,f]azulene], the IC50 worked out at 32 nM. Compared with the last molecule, the IC50 is about 3.8-fold lower.

On to `CCCC12Cc3ccccc3C1=CCc1c(cccc1OC)C2` (stereo not shown) [Compound 29], for which the IC50 came out at 15 nM. This IC50 is about 2.1-fold lower than that of the molecule before.

For `COc1ccc2c(c1)CC1(C)Cc3cc(OC)ccc3C1=CC2` (stereo not shown) [Compound 34, 6,11,11a,12-Tetrahydro-2,9-dimethoxy-11a-methyl-dibenz[a,f]azulene], the IC50 is 425 nM.

With `CCCC12Cc3cc(OC)ccc3CCC1c1ccccc1C2` (stereo not shown) [Compound 35], the IC50 was 133 nM.

Molecule `CCC12Cc3cc(OC)ccc3CC=C1c1ccc(OC)cc1C2` (stereo not shown) [Compound 37] yielded an IC50 of 2600 nM.

As for `CCCC12Cc3cc(O)ccc3CCC1c1ccccc1C2` (stereo not shown) [Compound 40], the IC50 is 51 nM.

With `CC[C@]12Cc3ccccc3C1C[C@@H](C)c1ccc(O)cc1C2` (stereo partly shown) [Compound 46], the IC50 is 65 nM.

Turning to `CCCC12Cc3cc(OC)ccc3C(C)CC1c1ccccc1C2` (stereo not shown) [Compound 48], the IC50 stood at 182 nM.

Consider `CCOP(=O)(OCC)Oc1ccc2c(c1)CC1(C)Cc3cc(F)ccc3C1CC2C` (stereo not shown) [Compound 49, 9-(2-Fluoro-6,11,11a,12-tetrahydro-6,11a-dimethyl)-dibenz[a,f]azulenyl diethyl phosphoric acid], for which the IC50 was found to be 72 nM.

Molecule `CCCC12Cc3cc(OC(C)=O)ccc3CCC1c1ccccc1C2` (stereo not shown) [Compound 50] came in with an IC50 of 42 nM.

Take `CC1CC2c3ccccc3CC2(C)Cc2cc(OCCN(C)C)ccc21` (stereo not shown) [Compound 51]: the IC50 was 410 nM.

`CCC12Cc3ccccc3C1=CCc1c(cccc1OC)C2` (stereo not shown) [Compound 52] yielded an IC50 of 68 nM.

`CC1CC2c3ccc(F)cc3CC2(C)Cc2cc(OCCN(C)C)ccc21` (stereo not shown) [Compound 55, 6,11a-Dimethyl-9-(N,N'-dimethylamino)ethoxy-2-fluoro-4b,5,6,11,11a,12-hexahydro-6,11a-dimethyldibenz[a,f]-azulene] showed an IC50 of 541 nM.

`CCCC12Cc3cc(F)ccc3C1=CCc1c(cccc1OC)C2` (stereo not shown) [Compound 56]: the IC50 was found to be 34 nM.

The molecule `CCCC12Cc3cc(OC)ccc3CC=C1c1ccc(F)cc1C2` (stereo not shown) [Compound 57] displayed an IC50 of 67 nM.

Molecule `COc1cc2c(cc1C(C)=O)C(C)CC1c3ccccc3CC1(C)C2` (stereo not shown) [Compound 61, 8-Acetyl-4b,5,6,11,11a,12-hexahydro-6,11a-dimethyl-9-methoxydibenz[a,f]azulene] showed an IC50 of 365 nM. This IC50 lies about 5.4-fold higher than the previous one.

For `COc1cc2c(cc1[N+](=O)[O-])C(C)CC1c3ccc(F)cc3CC1(C)C2` (stereo not shown) [Compound 65, 6,11a-Dimethyl-2-fluoro-8-nitro-9-methoxy-4b,5,6,11,11a,12-hexahydrodibenz[a,f]azulene 1/4 Hydrate], the IC50 was determined as 9 nM.

The molecule `CCCCC12Cc3cc(OC)ccc3CC=C1c1ccccc1C2` (stereo not shown) [Compound 67] yielded an IC50 of 185 nM.

The record behind these values is patent US5834521A, “Substituted dibenz (A F)azulenes and methods of preparation” (Ortho Pharmaceutical Corporation, priority 1996, dated 1998).
